Assay: refractive index (Na D-line) (dimensionless); xn = mol fraction of the nth substance listed
Conditions: 101 kPa, Liquid, Standard Abbe refractometry

CCCCOC(C)=O [butyl ethanoate] + Cc1ccccc1
refractive index
Conditions | 293.15 K | 298.15 K | 303.15 K | 308.15 K | 313.15 K
x1 = 0.0499 | 1.49044 | 1.48757 | 1.48472 | 1.4818 | 1.47891
x1 = 0.0998 | 1.48428 | 1.48149 | 1.47861 | 1.47573 | 1.47285
x1 = 0.15 | 1.47815 | 1.47538 | 1.47251 | 1.46966 | 1.46684
x1 = 0.2001 | 1.47222 | 1.46948 | 1.46668 | 1.46382 | 1.46101
x1 = 0.2502 | 1.46644 | 1.46358 | 1.46079 | 1.45814 | 1.45535
x1 = 0.2985 | 1.461 | 1.45826 | 1.45547 | 1.45277 | 1.4501
x1 = 0.3447 | 1.4559 | 1.45318 | 1.45041 | 1.44769 | 1.44494
x1 = 0.4011 | 1.4498 | 1.44705 | 1.4443 | 1.44161 | 1.4389
x1 = 0.4468 | 1.44504 | 1.44235 | 1.4397 | 1.43691 | 1.43423
x1 = 0.4994 | 1.43964 | 1.43696 | 1.4343 | 1.43157 | 1.42895
x1 = 0.5524 | 1.4343 | 1.43166 | 1.42902 | 1.42632 | 1.42368
x1 = 0.5999 | 1.42964 | 1.42695 | 1.42432 | 1.42164 | 1.41904
x1 = 0.6517 | 1.42468 | 1.42207 | 1.41943 | 1.41676 | 1.41415
x1 = 0.7 | 1.42017 | 1.41756 | 1.41498 | 1.41233 | 1.40974
x1 = 0.7516 | 1.41545 | 1.41287 | 1.41026 | 1.40773 | 1.40511
x1 = 0.7972 | 1.41141 | 1.40888 | 1.40629 | 1.40371 | 1.4012
x1 = 0.8404 | 1.4076 | 1.40508 | 1.4025 | 1.39992 | 1.39741
x1 = 0.8971 | 1.40273 | 1.40025 | 1.39777 | 1.39518 | 1.39265
x1 = 0.9449 | 1.39881 | 1.3963 | 1.39384 | 1.39133 | 1.38884

Reference: the NIST ThermoML archive (doi:10.1007/s10765-005-8096-3)
